Experimental data from PubChem BioAssay AID367 (MTDP, 2006).
Activity calls are given as the source filed them. No rule for the calls is given here.

target: Gag-Pol polyprotein (Human immunodeficiency virus type 2 subtype A (isolate ROD)) (UniProt P04584); experiment: Ribonuclease H inhibitors of HIV-2 reverse transcriptase, biochemical dose response (AID 367); conditions: HIV-2 RNase H, FRET RNA/DNA substrate cleavage
Sequence (P04584 whole entry, looked up): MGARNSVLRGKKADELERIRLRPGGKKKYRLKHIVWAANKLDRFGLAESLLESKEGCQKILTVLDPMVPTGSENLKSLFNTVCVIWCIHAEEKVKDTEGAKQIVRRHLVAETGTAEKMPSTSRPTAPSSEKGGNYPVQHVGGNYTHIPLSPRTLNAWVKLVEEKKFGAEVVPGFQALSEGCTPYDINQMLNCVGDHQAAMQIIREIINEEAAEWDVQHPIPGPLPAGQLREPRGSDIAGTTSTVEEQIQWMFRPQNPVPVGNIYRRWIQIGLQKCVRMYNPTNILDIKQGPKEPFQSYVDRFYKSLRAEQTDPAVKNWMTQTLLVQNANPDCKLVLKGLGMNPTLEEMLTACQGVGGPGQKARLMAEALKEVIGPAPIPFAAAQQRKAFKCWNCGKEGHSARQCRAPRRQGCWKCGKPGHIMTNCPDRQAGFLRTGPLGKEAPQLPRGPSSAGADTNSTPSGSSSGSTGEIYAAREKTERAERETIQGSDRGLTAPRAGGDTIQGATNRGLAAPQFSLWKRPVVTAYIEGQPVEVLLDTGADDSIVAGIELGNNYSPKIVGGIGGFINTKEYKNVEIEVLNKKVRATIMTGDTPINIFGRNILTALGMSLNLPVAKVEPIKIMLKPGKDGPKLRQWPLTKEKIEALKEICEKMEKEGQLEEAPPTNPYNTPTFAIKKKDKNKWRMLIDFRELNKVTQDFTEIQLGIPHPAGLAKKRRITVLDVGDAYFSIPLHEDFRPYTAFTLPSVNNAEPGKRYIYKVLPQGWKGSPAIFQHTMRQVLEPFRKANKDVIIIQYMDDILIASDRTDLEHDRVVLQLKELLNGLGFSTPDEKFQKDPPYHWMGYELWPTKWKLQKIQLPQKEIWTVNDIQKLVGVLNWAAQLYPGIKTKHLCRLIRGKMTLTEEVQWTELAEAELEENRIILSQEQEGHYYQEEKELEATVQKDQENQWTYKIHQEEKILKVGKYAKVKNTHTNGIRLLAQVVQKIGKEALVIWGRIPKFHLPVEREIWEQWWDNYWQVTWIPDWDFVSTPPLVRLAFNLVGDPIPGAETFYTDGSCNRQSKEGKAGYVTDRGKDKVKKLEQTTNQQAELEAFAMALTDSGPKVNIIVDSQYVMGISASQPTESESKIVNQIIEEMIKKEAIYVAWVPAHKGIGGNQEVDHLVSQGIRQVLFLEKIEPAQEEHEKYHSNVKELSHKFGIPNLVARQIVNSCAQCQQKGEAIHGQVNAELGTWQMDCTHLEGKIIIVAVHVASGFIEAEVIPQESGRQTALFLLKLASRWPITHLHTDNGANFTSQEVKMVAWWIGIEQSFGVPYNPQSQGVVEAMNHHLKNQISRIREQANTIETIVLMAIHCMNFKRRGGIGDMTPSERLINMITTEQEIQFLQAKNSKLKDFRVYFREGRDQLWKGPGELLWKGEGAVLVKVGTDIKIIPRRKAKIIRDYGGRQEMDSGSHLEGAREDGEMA

SMILES | IC50
Cc1onc(-c2ccccc2)c1C(=O)Nc1sc(C)c(C)c1C(N)=O | inactive
CCOc1ccc(N2C(=O)/C(=C/c3ccc(I)o3)C(=O)NC2=S)cc1 | 2000 nM
Cc1ccc(-c2n[nH]c(=S)n2/N=C/c2ccc(O)c(O)c2O)cc1 | 3800 nM
O=C(O)c1cc(-c2ccc(/C=C3/Sc4ccccc4C3=O)o2)ccc1O | 3300 nM
CCOc1ccc(N2C(=O)/C(=C/c3ccc(Br)o3)C(=O)NC2=S)cc1 | 900 nM
O=C(O)C1CCCCC1c1c2ccc(=O)c(O)c-2oc2c(O)c(O)ccc12 (centres undefined) | 600 nM
O=c1oc2ccccc2c(O)c1/C=C1\C=Nc2ccccc21 | 5000 nM
CCC(=O)Nc1sc2c(c1C(=O)Nc1ccc(OC)cc1)CCCCC2 | inactive
Cc1ccc(C=C2C(=O)NC(=S)N(c3ccccc3Cl)C2=O)o1 | inactive
C=C(C)[C@@H]1CCc2c(O)c(O)c(=O)cc(C)c2C1 | 1700 nM
Cc1cc(C(=O)O)ccc1-n1c(C)ccc1C | inactive
CC(C)c1ccc(O)c(O)c(=O)c1 (tested in a mixture with another compound) | 800 nM
CC(=O)O[C@H](C)[C@@H]1C2=C(C(=O)C[C@]1(C)O)C(=O)c1c(ccc(-c3ccc4c(c3O)C(=O)C3=C(C4=O)[C@@H]([C@@H](C)OC(C)=O)[C@@](C)(O)CC3=O)c1O)C2=O | inactive
Oc1cc(O)c2cc(O)c(-c3ccc(O)c(O)c3)[o+]c2c1 | 800 nM
CC(C)=CCC(O)C1=CC(=O)c2c(O)ccc(O)c2C1=O (centres undefined) | inactive
Cc1ccc(C)n1-c1ccc(SCC(=O)O)cc1 | 2000 nM
O=C1c2ccc(O)cc2C(=O)c2c1ccc(O)c2O | 2000 nM
Cc1cc(-c2ccco2)c(C#N)c(SCC(=O)c2ccc(O)c(O)c2)n1 | 800 nM
COc1cc([C@@H]2c3cc4c(cc3C[C@H]3COC(=O)[C@@H]32)OCO4)cc(OC)c1O | inactive
Cc1ccc(N2C(=O)/C(=C/c3ccc(O)c(O)c3)SC2=S)cc1C | 4000 nM
CC(C)=CCC1=C(O)[C@@](O)(CC=C(C)C)C(=O)C(C(=O)CC(C)C)=C1O | 2800 nM
NC(=O)c1c(NC(=O)COc2ccccc2)sc2c1CCCCC2 | 8000 nM
O=S(=O)(O)c1cc(N=[N+]([O-])c2cc(S(=O)(=O)O)c3ccccc3c2)cc2ccccc12 | inactive

SMILES | IC50
O=C1NC(=S)N(c2ccccc2F)C(=O)/C1=C/c1ccc(I)o1 | 4900 nM
CCN1C(=O)/C(=C/c2ccoc2)C(=O)NC1=S | inactive
C[N+](C)=c1ccc2nc3c(cc(Nc4ccccc4)c4ccccc43)oc-2c1 | inactive
CC1C2C=CC1C(c1c3ccc(=O)c(O)c-3oc3c(O)c(O)ccc13)C2C(=O)O (centres undefined) | 500 nM
Oc1ccc(/C=N/Nc2nncc(-c3ccccc3)n2)c(O)c1O | 1100 nM
CC(C)=CCC[C@]1(C)[C@@H](CC=C(C)C)C[C@@]2(CC=C(C)C)C(=O)/C(=C(\O)c3ccc(O)c(O)c3)C(=O)[C@]1(CC=C(C)C)C2=O | 4800 nM
O=C1c2ccccc2C(=O)N1c1ccc(-c2nc3ccc(N4C(=O)c5ccccc5C4=O)cc3[nH]2)cc1 | 1700 nM
COc1cccc2cc(C(N)=O)c(=O)oc12 | 4600 nM
O=C1NN(c2ccc(I)cc2)C(=O)/C1=C\c1ccc(O)c(O)c1 | 4100 nM
Cc1cccc(NC(=O)c2c(NC(=O)c3ccc([N+](=O)[O-])cc3)sc3c2CCCC3)c1 | 2700 nM
COc1ccc(-c2c(C#N)c(N)nc(SCC(=O)c3ccc(O)c(O)c3)c2C#N)cc1 | 700 nM
COc1ccc(N2C(=O)/C(=C\c3cn(CC(=O)Nc4ccccc4)c4ccccc34)C(=O)NC2=S)cc1 | 2800 nM
O=C1C=C(NCCc2cc(Br)c(O)c(Br)c2)C(=O)c2ncccc21 | 1700 nM
C=C/C(C)=C/C[C@]1(C)[C@H](C)CC[C@@]23C(=C[C@H](OC(=O)c4ccc(O)c(OC)c4)C[C@@H]12)[C@@H](OC(C)=O)O[C@H]3OC(C)=O | inactive
Cc1ccc(C2COc3cc(O)c(O)cc3C2)cc1 (centres undefined) | 600 nM
COc1c(OC)c(O)c2c(=O)cc(-c3ccc(O)c(O)c3)oc2c1OC | 3000 nM
N#C/C(=C\Nc1ccc(S(=O)(=O)Nc2nccs2)cc1)c1nc(-c2ccc(Cl)cc2)cs1 | 4100 nM
O=C1NC(=S)N(c2ccccc2F)C(=O)C1=Cc1ccco1 | 2600 nM
Oc1cc(O)c2c(c1)OC(c1ccc(O)c(O)c1)C(OC1(c3cc(O)c(O)c(O)c3)Oc3cc(O)cc(O)c3C(O)C1O)C2 (centres undefined) | 1600 nM
Cc1ccc(-n2c(/C=C/c3ccc(O)c(O)c3)nc3ccccc3c2=O)cc1 | 3800 nM
COc1ccc2oc(=O)c(-c3csc(Nc4ccc(Br)cc4)n3)cc2c1 | 9800 nM
C=CCn1c(N)c(-c2nc3ccccc3[nH]2)sc1=S | 3900 nM
C=CC(C)(C)C12CC3C(=O)N/C(=C\c4cnc[nH]4)C(=O)N3C1Nc1ccccc12 (centres undefined) | > 100000 nM (inactive)

SMILES | IC50
CCOc1ccc(NC(=O)c2c(NC(=O)c3ccco3)sc3c2CCCCC3)cc1 | 6000 nM
C=C(CCC(C(=O)O)C1CCC2(C)C3=C(CCC12C)C1(C)CCC(O)C(C)(C)C1CC3)C(C)C (centres undefined) | inactive
O=C(N/N=C/c1ccc(/C=N/NC(=O)c2ccc(O)c(O)c2)cc1)c1ccc(O)c(O)c1 | 3800 nM
O=C1C=CC(=NS(=O)(=O)c2ccc(Cl)c([N+](=O)[O-])c2)C=C1 | 4100 nM
Oc1cc(CN2COc3ccccc32)c(O)cc1CNC1CCCCC1 | 2900 nM
Cc1ccccc1-n1c(O)c(C=C2C=CC=N2)c(=O)[nH]c1=S | inactive
O=C1O/C(=C(/C(=O)O)c2ccc(O)cc2)C(O)=C1c1cc2c3c(c(O)cc(C4=C(O)/C(=C(\C(=O)O)c5ccc(O)cc5)OC4=O)c3c1)OC2=O | 1400 nM
Cc1ccc(C)n1-c1ccc(Br)cc1C(=O)O | inactive
O=[N+]([O-])c1ccc2c(N=Nc3ccc4ccccc4c3O)c(O)cc(S(=O)(=O)O)c2c1 | 2200 nM
Cc1cc(=O)c2c(O)c3c(O)cc(O)c4c5c(O)cc(O)c6c(O)c7c(=O)cc(C)c8c1c2c(c34)c(c65)c78 | inactive
Cc1cc(Cl)ccc1OCC(=O)Nc1sc(C)c(C)c1C(N)=O | inactive
FC(F)(F)c1nc2ccc(SSc3ccc4nc(C(F)(F)F)[nH]c4c3)cc2[nH]1 | 600 nM
COC(=O)c1cc2cc3cc4cc(CC(=O)O)c(C(=O)/C=C(\O)c5ccccc5O)c(OC)c4c(OC)c3c(O)c2c(=O)o1 | 8600 nM
CC(=O)/C=C/C=C/c1ccc2c(c1)OC(CO)C(c1ccc(O)c(O)c1)O2 (centres undefined) | inactive
O=C1C(Cl)=C/C(=N\S(=O)(=O)c2ccc(Cl)cc2)C(Cl)=C1Cl | 1000 nM
c1ccc(C(c2cccc3c2ccc2ccccc23)C(c2ccccc2)c2cccc3c2ccc2ccccc23)cc1 (centres undefined) | inactive
COc1cc(C)cc2c(-c3c(O)cc(O)c4c3C[C@@H](C)N[C@@H]4C)cc(-c3cc(-c4c(O)cc(O)c5c4C[C@@H](C)N[C@@H]5C)c4cc(C)cc(OC)c4c3O)c(O)c12 | 2100 nM
O=C(O)C1Nc2c(Cl)cc(Cl)cc2C2C=CCC12 (centres undefined) | inactive
CCOc1ccc(NC(=O)c2c(NC(=O)c3ccccc3)sc3c2CCCCC3)cc1 | inactive
O=C(NC(=S)Nc1cc(-c2nc3ccccc3s2)ccc1Cl)c1ccc(F)cc1 | 9100 nM
O=C1c2ccccc2C(=O)c2c1cc(O)c(O)c2O | 400 nM
Cc1cc(Br)ccc1N1C(=O)/C(=C/c2ccco2)C(=O)NC1=S | 4000 nM
Nc1nc(Sc2ccc([N+](=O)[O-])c3nonc23)c2[nH]cnc2n1 | inactive
